Consider 25 molecules from ChEMBL document CHEMBL4480432, “Expansion of a novel lead targeting M. tuberculosis DHFR as antitubercular agents” (Bioorg Med Chem, 2019).

In brackets after ≈: the same amount, converted by molar mass.

Data set [1] relates to Mycobacterium tuberculosis. In words: microbe, parasite or virus in culture. To be noted: H37Rv ATCC 27294, 168 h.
Description: Antitubercular activity against Mycobacterium tuberculosis H37Rv ATCC 27294 after 7 days by microplate alamar blue method
In data set [2] the target is T1, Dihydrofolate reductase (Mycobacterium tuberculosis, UniProt P9WNX1).
T1 sequence (P9WNX1 whole entry): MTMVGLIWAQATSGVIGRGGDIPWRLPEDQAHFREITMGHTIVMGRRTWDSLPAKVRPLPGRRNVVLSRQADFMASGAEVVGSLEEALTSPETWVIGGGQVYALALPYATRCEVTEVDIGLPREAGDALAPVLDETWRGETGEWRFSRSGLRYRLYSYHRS
In words: Inhibition of Mycobacterium tuberculosis H37Rv DHFR expressed in Escherichia coli BL21(DE3) assessed as reduction in consumption of NADPH using DHF as substrate preincubated for 1 min followed by DHF addition and measured for 2 mins by spectrophotometric method.

For data set [3], the system named is DHFR (human versus Mycobacterium tuberculosis H37Rv). In words: Selectivity index, ratio of IC50 for human DHFR to IC50 for Mycobacterium tuberculosis H37Rv DHFR expressed in Escherichia coli BL21(DE3). The format is toxicity. The settings on record: human and Mycobacterium tuberculosis H37Rv; read-out: Ratio IC50.
Data set [4] deals with T2, Dihydrofolate reductase (Homo sapiens, UniProt P00374).
T2 sequence (P00374 whole entry): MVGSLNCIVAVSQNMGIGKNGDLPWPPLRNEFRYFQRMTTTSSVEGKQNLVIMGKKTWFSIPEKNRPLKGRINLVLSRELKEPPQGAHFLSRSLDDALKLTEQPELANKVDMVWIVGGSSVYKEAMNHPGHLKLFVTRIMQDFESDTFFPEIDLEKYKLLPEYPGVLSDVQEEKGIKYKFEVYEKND
In words: Inhibition of human DHFR assessed as reduction in consumption of NADPH using DHF as substrate preincubated for 1 min followed by DHF addition and measured for 2 mins by spectrophotometric method.

`CC(=O)c1c(C)n(Cc2ccccc2)c2ccc(OCc3cn(-c4ccc(C)cc4)nn3)cc12`: in data set [1], the MIC came to 55.5 µM (≈ 25 µg/mL).
The same measure, in the same setting: next, `CCOC(=O)c1c(C)n(Cc2ccccc2)c2ccc(OCc3cn(-c4ccc(C)cc4)nn3)cc12`: 26 µM (≈ 12.5 µg/mL).
`CCOC(=O)c1c(C)n(Cc2ccccc2)c2ccc(OCc3cn(-c4ccc(Br)cc4)nn3)cc12`: the MIC in data set [1] was 45.9 µM (≈ 25.1 µg/mL).
For `CC(=O)c1c(C)n(Cc2ccccc2)c2ccc(OCCCC(=O)O)cc12`, the IC50 – broadly, the point on the concentration scale where inhibition reaches its midpoint – at Dihydrofolate reductase [2] was found to be 25 µM.
`CCOC(=O)c1c(C)n(Cc2ccccc2)c2ccc(OCc3cn(-c4ccc(F)cc4)nn3)cc12` yielded an MIC in data set [1] of 51.6 µM (≈ 25 µg/mL).
As to `CC(=O)c1c(C)n(Cc2ccccc2)c2ccc(OCc3cn(-c4ccc(F)cc4)nn3)cc12`, the MIC in data set [1] was 55 µM (≈ 25 µg/mL).
In turn, `CCOC(=O)c1c(C)n(Cc2ccccc2)c2ccc(OCc3cn(-c4ccccc4OC)nn3)cc12` registered an MIC in data set [1] of 50.4 µM (≈ 25 µg/mL).
Same read-out and setting: the figure for `CCOC(=O)c1c(C)n(Cc2ccccc2)c2ccc(OCc3cn(-c4cccc(Cl)c4)nn3)cc12` is 50.2 µM (≈ 25.1 µg/mL).
Still for that read-out and setting: next, `CCOC(=O)c1c(C)n(Cc2ccccc2)c2ccc(OCc3cn(-c4ccc(C#N)cc4)nn3)cc12`: 12.7 µM (≈ 6.25 µg/mL); `COc1ccccc1-n1cc(COc2ccc3c(c2)c(C(C)=O)c(C)n3Cc2ccccc2)nn1`: 53.6 µM (≈ 25 µg/mL); `CCOC(=O)c1c(C)n(Cc2ccccc2)c2ccc(OCc3cn(-c4ccc(CC)cc4)nn3)cc12`: 50.6 µM (≈ 25 µg/mL).
The same measure, in the same setting: the figure for `CC(=O)c1c(C)n(Cc2ccccc2)c2ccc(OCc3cn(-c4ccc(C#N)cc4)nn3)cc12` is 54.2 µM (≈ 25 µg/mL); for `CCc1ccc(-n2cc(COc3ccc4c(c3)c(C(C)=O)c(C)n4Cc3ccccc3)nn2)cc1` it is 26.9 µM (≈ 12.5 µg/mL).
Molecule `CC(=O)c1c(C)n(Cc2ccccc2)c2ccc(OCc3cn(-c4ccc(C(F)(F)F)cc4)nn3)cc12` yielded an MIC in data set [1] of 49.5 µM (≈ 25 µg/mL).
Still for that read-out and setting: the figure for `CC(=O)c1c(C)n(Cc2ccccc2)c2ccc(OCc3cn(-c4ccc(Cl)cc4)nn3)cc12` is 53.1 µM (≈ 25 µg/mL); for `CCOC(=O)c1c(C)n(Cc2ccccc2)c2ccc(OCc3cn(-c4ccc(C(F)(F)F)cc4)nn3)cc12` it is 46.8 µM (≈ 25 µg/mL).
On to `CC(=O)c1c(C)n(Cc2ccccc2)c2ccc(OCc3cn(-c4cccc(Cl)c4)nn3)cc12`, for which, in data set [3], the selectivity ratio is 4.17. In addition, the values for the IC50 at Dihydrofolate reductase [4] and at Dihydrofolate reductase [2] were 180 µM and 43.1 µM, respectively. In addition, the MIC in data set [1] is 6.64 µM (≈ 3.13 µg/mL).
For the molecule `CCOC(=O)c1c(C)n(Cc2ccccc2)c2ccc(OCc3cn(-c4ccc([N+](=O)[O-])cc4)nn3)cc12`, the MIC in data set [1] amounted to 48.9 µM (≈ 25 µg/mL).
The same measure, in the same setting: the figure for `CC(=O)c1c(C)n(Cc2ccccc2)c2ccc(OCc3cn(-c4ccc([N+](=O)[O-])cc4)nn3)cc12` is 12.9 µM (≈ 6.21 µg/mL); for `CC(=O)c1c(C)n(Cc2ccccc2)c2ccc(OCc3cn(-c4ccc(C)c(C)c4)nn3)cc12` it is 53.8 µM (≈ 25 µg/mL); for `O=C(O)c1cn(C2CC2)c2cc(N3CCNCC3)c(F)cc2c1=O` [CIPROFLOXACIN] it is 4.7 µM (≈ 1.56 µg/mL).
Still for that read-out and setting: the figure for `CC[C@@H](CO)NCCN[C@@H](CC)CO` [ETHAMBUTOL] is 16.5 µM (≈ 3.37 µg/mL); for `NNC(=O)c1ccncc1` [ISONIAZID] it is 0.73 µM (≈ 0.1 µg/mL); for `CN(Cc1cnc2nc(N)nc(N)c2n1)c1ccc(C(=O)N[C@@H](CCC(=O)O)C(=O)O)cc1` [METHOTREXATE] it is 3.38 µM (≈ 1.54 µg/mL).
The same measure, in the same setting: the figure for `CO[C@H]1/C=C/O[C@@]2(C)Oc3c(C)c(O)c4c(O)c(c(/C=N/N5CCN(C)CC5)c(O)c4c3C2=O)NC(=O)/C(C)=C\C=C\[C@H](C)[C@H](O)[C@@H](C)[C@@H](O)[C@@H](C)[C@H](OC(C)=O)[C@@H]1C` [RIFAMPIN] is 0.25 µM (≈ 0.206 µg/mL).
